Results published in publication PMC8533176, “1,5-Benzodiazepin-2(3H)-ones: In Vitro Evaluation as Antiparkinsonian Agents” (Antioxidants, 2021).

Key:
SH-SY5Y cells [1] = experiment: LDH release under H2O2; type: cell-based, human; conditions: H2O2 250 µM 24 h; compounds 24 h before; Figure 9
SH-SY5Y cells [2] = experiment: Cytotoxicity, MTT assay, SH-SY5Y; type: cell-based; conditions: Homo sapiens, MTT, cytotoxicity, read-out: SH-SY5Y IC50
Summary of the method: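 Cells treated with 5–200 µM compound (DMSO vehicle, four replicates) after overnight attachment. Viability read by MTT reduction (2 h, 37 °C, dark; formazan in DMSO, A570) relative to vehicle controls; IC50 from dose–response regression.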

diffSH-SY5Y cells = experiment: Neuroprotection in differentiated SH-SY5Y cells, MTT; type: cell-based, human; conditions: H2O2 500 µM 24 h; 0, 2, 5, 10, 20, and 40 µM 24 h before
SH-SY5Y cells [3] = experiment: GSH/GSSG ratio; type: cell-based, human; conditions: H2O2 500 µM 6 h; 10 and 20 µM 24 h before
Experimental: GSH and GSSG levels were determined by the method of Vikas et al. with slight modifications. In summary, 2 × 10^5 SH-SY5Ycells were seeded in 6-well culture plates. After 24 h, cells were treated with the test compound and incubated for another 24 h. […] Then, cells were washed twice with cold 50 mM PBS buffer, detached, lysed with lysis buffer, and split into two samples: one for GSH analysis and the other for GSSG determination. For GSH analysis, 20 µL of ortho-phthaldehyde (OPT) 20 mg/mL and 280 µL of monobasic potassium phosphate buffer were added per 100 µL of sample replicate. Samples were vortexed and centrifuged at 4 °C at 13,000× g for 10 min. Afterward, 100 µL of supernatant per well was transferred to a black 96-well culture plate with a clear bottom. Fluorescence was measured in a Varioskan plate reader (λex = 360 nm; λem = 420 nm). Sample GSH concentrations were calculated from a standard calibration curve made by serial dilutions of GSH from 0 to 50 µM. […] Fluorescence was measured in a Varioskan plate reader (λex = 360 nm; λem = 420 nm). Sample GSSG concentrations were calculated from a standard calibration curve made by serial dilutions of GSSG from 0 to 200 µM.

[4] = Kinetic solubility by UV spectrometry; type: physicochemical; conditions: PBS 50 mM, aqueous buffer, kinetic from dmso stock
Summary of the method: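 Compound from 20 mM DMSO stock was added to 10 mM PBS, shaken 2 h and filtered. The filtrate's UV absorbance (270–600 nm) was quantified against a 10–200 µM calibration curve in 50 mM PBS with 2% DMSO. Run in triplicate.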

solubility [4]: < 100 µM
Structure (SMILES): O=C1CC(c2ccccc2)=Nc2ccccc2N1 [Compound 18, 4-Phenyl-1H-1,5-benzodiazepin-2(3H)-one]
LDH leakage (SH-SY5Y cells [1]): significant reduction at all the concentrations tested
IC50 (SH-SY5Y cells [2]): > 250 µM
Neuroprotection, diffSH-SY5Y cell viability (MTT) (diffSH-SY5Y cells): dose-dependent neuroprotectant activity
GSH/GSSG ratio (SH-SY5Y cells [3]): improved the GSH/GSSG ratios of cells under oxidative stress, although without statistical significance
